{
  "source": "patent US10525220B2",
  "about": "“Droplet delivery device for delivery of fluids to the pulmonary system and methods of use” (PNEUMA RESPIRATORY, INC., priority 2016, dated 2020)",
  "assay_type_in_all_cases": "physicochemical",
  "key": {"[1]": {"assay": "Anderson Cascade Impactor testing of Albuterol sulfate aerosol from droplet delivery device (Example B)", "method": "The study was designed to evaluate device performance of a single Pneuma™ inhaler. A series of three (3) individual tests were conducted with a new disposable drug cartridge for each test. The testing platform utilizes an eight-stage nonviable Anderson Cascade Impactor (Thermo Fisher Scientific; Waltham, Mass.) equipped with a calibrated AALBORG model GFM47 mass flow meter (AALBORG Instruments and Controls; Orangeburg, N.Y.) for flow rate measurement.\nAt the conclusion of each test, the mouthpiece was rinsed with mobile phase and collected for HPLC analysis to determine the mass fraction of non-respirable aerosolized drug captured in the mouthpiece via inertial filtering. Following each test, impactor stage samples were extracted and recovered in solvent and analyzed for the active pharmaceutical ingredient (API) using a Dionex Ultimate 3000 nano-HPLC with UV detection (Thermo Scientific, Sunnyvale, Calif.).\nThe cascade impactor testing procedure involved fitting the mouthpiece into the Impactor USP throat with a mouthpiece connection seal. The vacuum pump supplying sample air flow to the cascade impactor was turned on and the pump control valves adjusted to supply 28.3 L/min total flow through the impactor and inhaler body during aerosol tests.\nThe device was connected to the impactor USB throat, turned on, and actuated ten (10) times for each test. At the conclusion of the test period, the device, impactor, and dilution air sources were turned off. The i mouthpiece was rinsed in order to extract drug, and all stages of the cascade impactor were rinsed with a quantity of appropriate solvent (HPLC mobile phase). Extracted samples were placed in labeled and sterile HPLC vials, capped, and analyzed for drug content via HPLC with UV detection. The mouthpiece was extracted of residual drug and analyzed for drug content via HPLC to measure mouthpiece drug deposition in relation to the total collected on the impactor stages.\nAll system flow rates and impactor sample flows were monitored throughout each test period. Following each test, the impactor slides were placed in labeled sterile Petri dishes, and impactor stages were extracted of drug using 2 ml of mobile phase applied with a calibrated micropipette. All extracted samples from the mouthpiece and impactor were placed in labeled sterile amber HPLC sample vials, and stored refrigerated at approximately 2° C. until HPLC analysis.\nImpactor collection stages for all tests were rinsed with DI water and ethanol, and air dried prior to each inhaler test trial to avoid contamination. A new inhaler drug cartridge was used for each of the three individual tests.\nAll drug content analysis was performed using a Dionex Ultimate 3000 nano-HPLC equipped with a Dionex UVD-3000 multi-wavelength UVNIS Detector using a micro flow cell (75 um×10 mm path length, total analytical volume 44.2 nl). […] Total HPLC run time was 6 minutes per sample with approximately 5 minutes flush between each sample. Sample injection was performed with a 1 μl sample loop in full loop injection mode.\nBuffer formulation contains reverseosmosis filtered deionized water with 1.13 gr of sodium 1-hexanesulfonate (Alfa Aesar) in 1200 ml of water, with 2 ml glacial acetic acid (Acros Organics) added. The mobile phase solution was mixed and filtered through a 0.45 um filter membrane. The final mobile phase is a 60:40 dilution of Buffer:MEOH.\nMean and standard deviation were calculated for all triplicate trial sets for each component of: inhaler drug fill, total delivered dose, course particle dose, course particle fraction, respirable particle dose, respirable particle fraction, fine particle dose, fine particle fraction, aerosol MMAD and GSD. The number of trials provided for 95% confidence levels for all data sets."}, "[2]": {"assay": "Size exclusion chromatography stability study after aerosol generation with test device", "description": "Alternately, to determine the stability of active agent after droplet generation, the generated stream of droplets including the active agent may be collected and […] may be employed to monitor for any changes in large molecule aggregation and protein fragment content. Soluble protein aggregates and protein fragment content may be calculated by comparing respective peak area under the SEC-HPLC curve of dispensed protein solutions with controls (solutions remaining in the device reservoir). Drug solutions for testing include Enbrel, (ENBREL® single-use prefilled syringes in 25 mg (0.51 mL of a 50 mg/mL solution of etanercept), and insulin, (Humalog, 200 units/ml, 3 ml […] is performed with a YarraTM 3 um SEC-2000 LC column 300×7.8 mm, SecurityGuard cartridge kit and SecurityGuard cartridges GFC-2000, 4×3 mm ID. Fifty microliters of Enbrel from the syringe (ENBREL® single-use prefilled syringes in 25 mg/0.51 mL of a 50 mg/mL solution of etanercept) is diluted (4:1) (4 parts, 200 mcl of the mobile phase buffer solution to 1 part, 50 mcl Enbrel from syringe). Fifty microliter of the diluted Enbrel is injected and separation was performed at a flow rate of 1.0 ml/min. The mobile phase buffer system included a PHOS. BUFF. SALINE. […] UV detection is performed at 280 nm. […] Aerosol collection and SEC is performed in a similar fashion as for the Enbrel analysis and aerosol collection. […] Fifty microliters of the collected aerosol spray is injected onto the SEC column for analysis, while 50 mcl of the […] insulin solution is injected onto the SEC column for control samples."}, "[3]": {"assay": "Gravimetric analysis of delivered dose per actuation", "conditions": "for solution mass per dose (actuation), average of five doses: ampule weighed before and after dosing", "protocol": "Gravimetric analysis was performed by weighing the Enbrel solution filled ampule before and after dosing. The average of five doses (actuations) were analyzed with an average of 4.25 mg+/−0.15 mg. The total delivered dose of Enbrel per actuation is therefore […] per actuation.\nGravimetric analysis was performed by weighing the Insulin solution filled ampule before and after dosing. The average of five doses (actuations) were analyzed with an average of 5.01 mg+/−0.53 mg. The total delivered dose of Insulin per actuation is therefore 34.8 mcg per actuation."}, "[4]": {"assay": "Gel electrophoresis stability of active agent after droplet generation", "description": "To determine the stability of active agent after droplet generation, the generated stream of droplets including the active agent is collected and the molecular weight of the active agent is verified using gel electrophoresis."}, "[5]": {"conditions": "Albuterol 0.5%, 28.3 lpm, 10 actuations"}, "[6]": {"conditions": "Albuterol 0.5%, 28.3 lpm, N = 30"}, "[7]": {"conditions": "Albuterol 0.5%, Anderson Cascade, 28.3 lpm, 10 actuations"}, "[8]": {"conditions": "Pre-separator, cut diam. 10 μm, Albuterol 0.5%, 28.3 lpm, 10 actuations"}, "[9]": {"conditions": "Enbrel aerosolized, average of S1 and S2"}},
  "note": "Values joined by “and” are separate entries in the source; they are usually repeats but may differ in a detail not shown here. Equal values may be shown once.",
  "data": [
    {"substance": "Albuterol sulfate", "values": [
      {"measurement": "Coarse Particles (>4.7 um)", "setting": "[1]; [5]", "result": 203.7, "unit": "µg"},
      {"measurement": "Coarse Particules Fraction (>4.7 um)", "setting": "[1]; [5]", "result": 22.7, "unit": "%"},
      {"measurement": "Fine Particles (<0.4 um)", "setting": "[1]; [5]", "result": 31.0, "unit": "µg"},
      {"measurement": "Fine Particule Fraction (<0.4 um)", "setting": "[1]; [5]", "result": 3.5, "unit": "%"},
      {"measurement": "Mouthpiece Losses", "setting": "[1]; [5]", "result": 12.2, "unit": "%"},
      {"measurement": "Respirable Dose (0.4-4.7 um)", "setting": "[1]; [5]", "result": 621.9, "unit": "µg"},
      {"measurement": "Respirable Fraction (0.4-4.7 um)", "setting": "[1]; [5]", "result": 69.3, "unit": "%"},
      {"measurement": "Geometric StdDev (GSD)", "setting": "[1]; [6]", "result": 1.96},
      {"measurement": "MMAD", "setting": "[1]; [6]", "result": 1.93, "unit": "um"},
      {"measurement": "Mouthpiece Losses", "setting": "[1]; [7]", "result": 109.4, "unit": "µg"},
      {"measurement": "droplets of an average diameter of less than about 5 μm", "setting": "[1]; [7]", "result": "over 75%"},
      {"measurement": "droplets with an average diameter of less than about 4 μm", "setting": "[1]; [7]", "result": "over 70%"},
      {"measurement": "Cum. % <", "setting": "[1]; FILTER stage", "result": 0.00, "unit": "%"},
      {"measurement": "Cum. % >", "setting": "[1]; FILTER stage", "result": 100.00, "unit": "%"},
      {"measurement": "Cum. % <", "setting": "[1]; [8]", "result": 100.00, "unit": "%"},
      {"measurement": "Cum. % >", "setting": "[1]; [8]", "result": 0.00, "unit": "%"},
      {"measurement": "Cum. % <", "setting": "[1]; stage 0, cut diam. 9 μm", "result": 88.95, "unit": "%"},
      {"measurement": "Cum. % <", "setting": "[1]; stage 1, cut diam. 5.8 μm", "result": 76.22, "unit": "%"},
      {"measurement": "Cum. % >", "setting": "[1]; stage 1, cut diam. 5.8 μm", "result": 23.78, "unit": "%"},
      {"measurement": "Cum. % <", "setting": "[1]; stage 2, cut diam. 4.7 μm", "result": 71.05, "unit": "%"},
      {"measurement": "Cum. % >", "setting": "[1]; stage 2, cut diam. 4.7 μm", "result": 28.95, "unit": "%"},
      {"measurement": "Cum. % <", "setting": "[1]; stage 3, cut diam. 3.3 μm", "result": 64.29, "unit": "%"},
      {"measurement": "Cum. % >", "setting": "[1]; stage 3, cut diam. 3.3 μm", "result": 35.71, "unit": "%"},
      {"measurement": "Cum. % <", "setting": "[1]; stage 4, cut diam. 2.1 μm", "result": 52.89, "unit": "%"},
      {"measurement": "Cum. % >", "setting": "[1]; stage 4, cut diam. 2.1 μm", "result": 47.11, "unit": "%"},
      {"measurement": "Cum. % <", "setting": "[1]; stage 5, cut diam. 1.1 μm", "result": 21.05, "unit": "%"},
      {"measurement": "Cum. % >", "setting": "[1]; stage 5, cut diam. 1.1 μm", "result": 78.95, "unit": "%"},
      {"measurement": "Cum. % <", "setting": "[1]; stage 6, cut diam. 0.7 μm", "result": 8.47, "unit": "%"},
      {"measurement": "Cum. % >", "setting": "[1]; stage 6, cut diam. 0.7 μm", "result": 91.53, "unit": "%"},
      {"measurement": "Cum. % >", "setting": "[1]; stage 7, cut diam. 0.4 μm", "result": 96.38, "unit": "%"}
    ]},
    {"substance": "Insulin: insulin, Humalog, 200 units/ml, 3 ml kwikpens", "values": [
      {"measurement": "Peak Area %, Peak 1", "setting": "[2]; Insulin 200 U/ml, aerosolized", "result": "27.881% and 28.721%"},
      {"measurement": "Peak Area %, Peak 2", "setting": "[2]; Insulin 200 U/ml, aerosolized", "result": "69.780% and 67.807%"},
      {"measurement": "Peak Area %, Peak 3", "setting": "[2]; Insulin 200 U/ml, aerosolized", "result": "2.184% and 2.797%"},
      {"measurement": "Peak Area %, Peak 2", "setting": "[2]; Insulin 200 U/ml, control", "result": 69.630, "unit": "%"},
      {"measurement": "Peak Area %, Peak 3", "setting": "[2]; Insulin 200 U/ml, control", "result": 0, "unit": "%"},
      {"measurement": "Peak 3, Avg.", "setting": "[2]; Insulin aerosolized, average of S1 and S2", "result": 2.4905},
      {"measurement": "Peak Area %, Peak 1", "setting": "[2]; Insulin from Kwikpen 200 U/ml, control", "result": 29.926, "unit": "%"},
      {"measurement": "ejected dose forming a fragment which elutes at ~25 minutes", "setting": "[2]; Insulin, test device", "result": 2.5, "unit": "%"},
      {"measurement": "ejected dose structurally unchanged", "setting": "[2]; Insulin, test device", "result": 97.5, "unit": "%"},
      {"measurement": "total delivered dose per actuation", "setting": "[3]", "result": 34.8, "unit": "mcg per actuation"},
      {"measurement": "solution mass per dose (actuation), average of five doses", "setting": "[3]", "result": 5.01, "unit": "mg"}
    ]},
    {"substance": "adalimumab", "values": [
      {"measurement": "change in electrophoretic mobility (molecular weight) of post-aerosol active agent vs control", "setting": "[4]", "result": "negligible change"}
    ]},
    {"substance": "etanercept [Enbrel]", "values": [
      {"measurement": "change in electrophoretic mobility (molecular weight) of post-aerosol active agent vs control", "setting": "[4]", "result": "negligible change"},
      {"measurement": "Peak Area %, Peak 2", "setting": "[2]; Enbrel 10 mg/ml, aerosolized", "result": "90.789% and 92.112%"},
      {"measurement": "Peak Area %, Peak 3", "setting": "[2]; Enbrel 10 mg/ml, aerosolized", "result": "0.424% and 0.361%"},
      {"measurement": "Peak Area %, Peak 4", "setting": "[2]; Enbrel 10 mg/ml, aerosolized", "result": "0.357% and 0.352%"},
      {"measurement": "Peak Area %, Peak 5", "setting": "[2]; Enbrel 10 mg/ml, aerosolized", "result": "5.130% and 3.428% and 5.123%"},
      {"measurement": "Peak Area %, Peak 1", "setting": "[2]; Enbrel 10 mg/ml, aerosolized with test device", "result": "2.796% and 3.476%"},
      {"measurement": "Peak Area %, Peak 2", "setting": "[2]; Enbrel 10 mg/ml, control", "result": "96.676% and 95.909%"},
      {"measurement": "Peak Area %, Peak 3", "setting": "[2]; Enbrel 10 mg/ml, control", "result": "0.373% and 0.351%"},
      {"measurement": "Peak Area %, Peak 4", "setting": "[2]; Enbrel 10 mg/ml, control", "result": 0, "unit": "%"},
      {"measurement": "Peak Area %, Peak 5", "setting": "[2]; Enbrel 10 mg/ml, control", "result": 0, "unit": "%"},
      {"measurement": "Peak 4, Avg.", "setting": "[2]; [9]", "result": 0.3545},
      {"measurement": "Peak 5, Avg.", "setting": "[2]; [9]", "result": 4.2755},
      {"measurement": "Peak Area %, Peak 1", "setting": "[2]; Enbrel diluted 4:1 (10 mg/ml), control", "result": "2.428% and 3.041%"},
      {"measurement": "dose forming molecular fragments with elution times of 13 and 25 minutes", "setting": "[2]; Enbrel, test device", "result": 4.6, "unit": "%"},
      {"measurement": "structurally unchanged after delivering an aerosol dose", "setting": "[2]; Enbrel, test device", "result": 95.4, "unit": "%"},
      {"measurement": "total delivered dose per actuation", "setting": "[3]", "result": 42.5, "unit": "mcg per actuation"},
      {"measurement": "solution mass per dose (actuation), average of five doses", "setting": "[3]", "result": 4.25, "unit": "mg"}
    ]}
  ]
}
